Source: ChEMBL document CHEMBL1127769, “Synthesis of new pyrazolo[4,3-e]1,2,4-triazolo[1,5-c] pyrimidine and 1,2,3-triazolo[4,5-e]1,2,4-triazolo[1,5-c] pyrimidine displaying potent and selective activity as A2a adenosine receptor antagonists” (Bioorg Med Chem Lett, 1994)

Assays:
Adenosine receptor A1 = target: T1, Adenosine receptor A1 (Rattus norvegicus, UniProt P25099); test: biochemical
T1 sequence (P25099 whole entry): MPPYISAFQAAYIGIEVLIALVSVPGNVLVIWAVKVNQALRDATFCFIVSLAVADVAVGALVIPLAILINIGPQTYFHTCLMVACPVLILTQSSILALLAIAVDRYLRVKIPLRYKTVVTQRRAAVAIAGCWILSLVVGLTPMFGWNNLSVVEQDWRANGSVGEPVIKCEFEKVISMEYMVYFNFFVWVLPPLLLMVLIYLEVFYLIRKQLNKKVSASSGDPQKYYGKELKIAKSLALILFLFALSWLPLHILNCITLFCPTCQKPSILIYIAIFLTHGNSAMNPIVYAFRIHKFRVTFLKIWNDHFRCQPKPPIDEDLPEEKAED
Description: Binding ability of adenosine A1 receptor by using [3H]CHA as radioligand in rat whole brain homogenate

Adenosine receptor A2a [1] = target: T2, Adenosine receptor A2a (Rattus norvegicus, UniProt P30543)
Description: Binding ability of adenosine A2a receptor by using [3H]-CGS- as radioligand in rat striatal homogenate

Adenosine receptor A2a [2] = target: T2, Adenosine receptor A2a; test: Displacement of [3H]-CGS- from Adenosine A2a receptor of rat striatal homogenate

T2 sequence (P30543 whole entry): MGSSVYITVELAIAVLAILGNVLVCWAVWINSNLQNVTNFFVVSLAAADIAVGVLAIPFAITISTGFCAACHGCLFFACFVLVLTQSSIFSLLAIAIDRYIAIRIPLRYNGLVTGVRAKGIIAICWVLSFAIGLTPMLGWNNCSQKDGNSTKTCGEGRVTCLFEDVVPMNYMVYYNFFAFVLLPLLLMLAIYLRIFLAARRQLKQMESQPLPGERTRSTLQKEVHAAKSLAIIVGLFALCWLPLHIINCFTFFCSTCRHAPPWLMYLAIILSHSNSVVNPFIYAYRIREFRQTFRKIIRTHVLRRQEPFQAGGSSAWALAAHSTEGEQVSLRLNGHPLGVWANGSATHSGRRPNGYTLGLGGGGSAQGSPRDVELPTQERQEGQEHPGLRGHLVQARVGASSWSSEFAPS

SMILES	Ki (Adenosine receptor A1) [nM]	Ki (Adenosine receptor A2a [1]) [nM]	Ki (Adenosine receptor A2a [2]) [nM]
Nc1nc2nn(CCc3ccccc3)cc2c2nc(-c3ccco3)nn12	4.7	1.4	–
CCCCn1cc2c(nc(N)n3nc(-c4ccco4)nc23)n1	30.4	2.4	–
CCCCn1ncc2c1nc(N)n1nc(-c3ccco3)nc21	236	8.9	–
Cn1ncc2c1nc(N)n1nc(-c3ccco3)nc21	651	101	–
Nc1nc2nn(Cc3ccc(F)cc3)cc2c2nc(-c3ccco3)nn12	3.3	1.2	–
CC(C)CCn1cc2c(nc(N)n3nc(-c4ccco4)nc23)n1	5.6	–	–
Nc1nc2nn(Cc3ccc(F)cc3)nc2c2nc(-c3ccco3)nn12	18.3	2.5	–
Nc1nc2c(nnn2Cc2ccccc2)c2nc(-c3ccco3)nn12	6.1	4.6	–
Nc1nc2c(nnn2Cc2ccc(F)cc2)c2nc(-c3ccco3)nn12	61.2	13.7	–
Nc1nc2c(nnn2Cc2cccc(F)c2)c2nc(-c3ccco3)nn12	19	4.9	–
Nc1nc2c(nnn2CCc2ccccc2)c2nc(-c3ccco3)nn12	42.4	6.9	–
Nc1nc2c(nnn2Cc2ccccc2F)c2nc(-c3ccco3)nn12	13.7	10.4	–
CC(C)CCn1ncc2c1nc(N)n1nc(-c3ccco3)nc21	116	12	–
Nc1nc2ccc(Cl)cc2c2nc(-c3ccco3)nn12 [CGS-15943]	–	–	1.2
